Results from US12371428B2 (Exelixis, Inc., priority 2019, dated 2025).
Structures can show the parent of a compound that is named as a salt.

Assays:
[1] = target: Mer (phospho-Mer, MERTK-transfected 293A cells) (Homo sapiens (Human), UniProt Q12866); assay: Mer autophosphorylation ELISA in transient transfected 293A cells (Example H); assay type: cell-based; conditions: cellular activity; Mer autophosphorylation ELISA in transient transfected 293A cells
Summary of the method: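 IC50 from phospho-Mer ELISA of MERTK-transfected 293A cell lysates after 1 h treatment with serially diluted compound in serum-free medium.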

[2] = target: Human KDR (residues 790-1356) (Homo sapiens (Human), UniProt P35968); assay: Human KDR kinase assay, HTRF KinEase (Example B-2); assay type: biochemical; conditions: protocol of Example B-2 (other compounds)
Chain of Human KDR (residues 790-1356) (P35968 790-1356): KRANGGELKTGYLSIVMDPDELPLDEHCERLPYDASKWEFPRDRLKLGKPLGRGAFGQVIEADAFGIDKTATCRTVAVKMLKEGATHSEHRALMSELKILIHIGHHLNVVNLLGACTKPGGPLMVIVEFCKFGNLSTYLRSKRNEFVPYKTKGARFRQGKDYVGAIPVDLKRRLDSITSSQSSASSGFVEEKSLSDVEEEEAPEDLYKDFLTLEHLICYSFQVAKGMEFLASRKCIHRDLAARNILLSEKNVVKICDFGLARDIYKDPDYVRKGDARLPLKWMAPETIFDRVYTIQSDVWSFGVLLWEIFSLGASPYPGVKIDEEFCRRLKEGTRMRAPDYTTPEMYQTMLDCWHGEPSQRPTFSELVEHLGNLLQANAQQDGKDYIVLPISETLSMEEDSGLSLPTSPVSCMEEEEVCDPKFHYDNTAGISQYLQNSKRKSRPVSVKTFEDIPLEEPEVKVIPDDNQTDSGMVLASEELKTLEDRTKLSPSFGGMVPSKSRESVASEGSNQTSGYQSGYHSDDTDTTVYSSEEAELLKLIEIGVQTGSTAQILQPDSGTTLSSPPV
Summary of the method: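 Ten compound concentrations (3% DMSO final) were pre-plated, then KDR (790-1356) with biotinylated peptide in Mg/Mn/DTT buffer was added; ATP at Km (4.0 μM) started a 40 min room-temperature reaction. Detection used Eu-TK antibody and SA-XL665 in EDTA buffer; activity normalized to DMSO and reference inhibitor, IC50 by logistic fit.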

Chain of Mer (phospho-Mer, MERTK-transfected 293A cells) (Q12866 21-999): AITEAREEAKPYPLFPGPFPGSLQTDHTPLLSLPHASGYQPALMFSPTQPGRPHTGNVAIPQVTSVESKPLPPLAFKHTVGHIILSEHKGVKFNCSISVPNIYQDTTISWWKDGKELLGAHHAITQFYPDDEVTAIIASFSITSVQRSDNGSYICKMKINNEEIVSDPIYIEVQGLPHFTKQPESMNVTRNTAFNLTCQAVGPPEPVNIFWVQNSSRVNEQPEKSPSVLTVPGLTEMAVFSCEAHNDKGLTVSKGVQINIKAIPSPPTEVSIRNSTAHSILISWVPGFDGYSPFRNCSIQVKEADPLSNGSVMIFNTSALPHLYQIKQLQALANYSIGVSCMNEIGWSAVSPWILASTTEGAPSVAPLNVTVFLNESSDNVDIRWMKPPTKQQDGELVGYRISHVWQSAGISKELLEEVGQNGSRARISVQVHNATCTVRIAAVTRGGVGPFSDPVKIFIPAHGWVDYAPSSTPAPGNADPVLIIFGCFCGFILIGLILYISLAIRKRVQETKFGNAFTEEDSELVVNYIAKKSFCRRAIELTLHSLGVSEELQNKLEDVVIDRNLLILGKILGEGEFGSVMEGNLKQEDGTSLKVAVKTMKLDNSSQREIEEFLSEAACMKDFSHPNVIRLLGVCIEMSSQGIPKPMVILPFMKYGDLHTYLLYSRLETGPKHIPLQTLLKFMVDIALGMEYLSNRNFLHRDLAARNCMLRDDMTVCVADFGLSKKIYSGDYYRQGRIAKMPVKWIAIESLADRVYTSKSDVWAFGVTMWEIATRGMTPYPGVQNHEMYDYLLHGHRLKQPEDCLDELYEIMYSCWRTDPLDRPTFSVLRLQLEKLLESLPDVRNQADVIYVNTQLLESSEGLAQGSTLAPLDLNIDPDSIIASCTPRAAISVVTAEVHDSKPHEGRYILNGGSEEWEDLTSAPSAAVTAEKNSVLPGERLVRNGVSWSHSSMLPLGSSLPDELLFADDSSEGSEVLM

Compound	IC50 [1] [nM]	IC50 [2] [nM]
COc1cc2nccc(Oc3ccc(NC(=O)c4nccn(-c5ccc(F)cc5)c4=O)cc3)c2nc1OC [Compound 384, N-[4-[(6,7-dimethoxy-1,5-naphthyridin-4-yl)oxy]phenyl]-4-(4-fluorophenyl)-3-oxopyrazine-2-carboxamide]	< 100	100 to 300
COc1cc2nccc(Oc3ncc(NC(=O)c4cn(C5CN(C)C5)cc(-c5ccc(F)cc5)c4=O)cc3F)c2cc1OC [Compound 400, N-[6-(6,7-dimethoxyquinolin-4-yl)oxy-5-fluoropyridin-3-yl]-5-(4-fluorophenyl)-1-(1-methylazetidin-3-yl)-4-oxopyridine-3-carboxamide]	< 100	> 300
CCn1cc(C(=O)Nc2ccc(Oc3ccnc4cc(OC)cnc34)c(F)c2)c(=O)c(-c2ccc(F)cc2C)c1CO [Compound 285, 1-Ethyl-N-[3-fluoro-4-[(7-methoxy-1,5-naphthyridin-4-yl)oxy]phenyl]-5-(4-fluoro-2-methylphenyl)-6-(hydroxymethyl)-4-oxopyridine-3-carboxamide]	< 100	> 300
COc1ccc2nccc(Oc3ccc(NC(=O)c4cnc(C)c(-c5ccc(F)cc5)c4O)cc3F)c2c1 [Compound 347, N-[3-fluoro-4-(6-methoxyquinolin-4-yl)oxyphenyl]-5-(4-fluorophenyl)-4-hydroxy-6-methylpyridine-3-carboxamide]	< 100	100 to 300
COc1cc2nccc(Oc3ccc(NC(=O)c4nccn(-c5ccc(F)cc5)c4=O)cc3F)c2nc1OC [Compound 379, N-[4-[(6,7-dimethoxy-1,5-naphthyridin-4-yl)oxy]-3-fluorophenyl]-4-(4-fluorophenyl)-3-oxopyrazine-2-carboxamide]	< 100	< 100
COc1cc2nccc(Oc3ccc(NC(=O)c4ncc(C)n(-c5ccc(F)cc5C)c4=O)cc3F)c2nc1OC [Compound 393, N-[4-[(6,7-dimethoxy-1,5-naphthyridin-4-yl)oxy]-3-fluorophenyl]-4-(4-fluoro-2-methylphenyl)-5-methyl-3-oxopyrazine-2-carboxamide]	< 100	< 100
COc1ccc2nccc(Oc3ccc(NC(=O)c4ncc(C)n(-c5ccc(F)cc5)c4=O)cc3F)c2n1 [Compound 264, N-[3-Fluoro-4-[(6-methoxy-1,5-naphthyridin-4-yl)oxy]phenyl]-4-(4-fluorophenyl)-5-methyl-3-oxopyrazine-2-carboxamide]	< 100	> 300
COc1cnc2c(Oc3ccc(NC(=O)c4c(C)cc(C)n(-c5ccc(F)cc5)c4=O)cc3F)ccnc2c1 [Compound 280, N-[3-Fluoro-4-[(7-methoxy-1,5-naphthyridin-4-yl)oxy]phenyl]-1-(4-fluorophenyl)-4,6-dimethyl-2-oxopyridine-3-carboxamide]	< 100	< 100
COc1cc2nccc(Oc3ccc(NC(=O)c4nn(C(C)C)c(C)c(-c5ccc(F)cc5)c4=O)cc3F)c2nc1OC [Compound 364, N-[4-[(6,7-dimethoxy-1,5-naphthyridin-4-yl)oxy]-3-fluorophenyl]-5-(4-fluorophenyl)-6-methyl-4-oxo-1-propan-2-ylpyridazine-3-carboxamide]	< 100	< 100
COCc1ncc(C(=O)Nc2ccc(Oc3ccnc4cc(OC)c(OC)nc34)c(F)c2)c(O)c1-c1ccc(F)cc1 [Compound 301, N-[4-[(6,7-Dimethoxy-1,5-naphthyridin-4-yl)oxy]-3-fluorophenyl]-5-(4-fluorophenyl)-4-hydroxy-6-(methoxymethyl)pyridine-3-carboxamide]	< 100	< 100
CCOc1c(C(=O)Nc2ccc(Oc3ccnc4cc(OC)c(OC)nc34)c(F)c2)c(=O)c(-c2ccc(F)cc2)c(C)n1C [Compound 369, N-[4-[(6,7-dimethoxy-1,5-naphthyridin-4-yl)oxy]-3-fluorophenyl]-2-ethoxy-5-(4-fluorophenyl)-1,6-dimethyl-4-oxopyridine-3-carboxamide]	< 100	100 to 300
COc1ccc2nccc(Oc3ccc(NC(=O)c4c(C)cc(C)n(-c5ccc(F)cc5)c4=O)cc3)c2n1 [Compound 290, 1-(4-Fluorophenyl)-N-[4-[(6-methoxy-1,5-naphthyridin-4-yl)oxy]phenyl]-4,6-dimethyl-2-oxopyridine-3-carboxamide]	< 100	< 100
COc1cnc2c(Oc3ccc(NC(=O)c4ncc(C)n(-c5ccc(F)cc5)c4=O)cc3)ccnc2c1 [Compound 263, 4-(4-Fluorophenyl)-N-[4-[(7-methoxy-1,5-naphthyridin-4-yl)oxy]phenyl]-5-methyl-3-oxopyrazine-2-carboxamide]	< 100	> 300
COCCOc1ccc2nccc(Oc3ccc(NC(=O)c4ccc(C)n(-c5ccc(F)cc5)c4=O)cc3F)c2n1 [Compound 350, N-[3-fluoro-4-[[6-(2-methoxyethoxy)-1,5-naphthyridin-4-yl]oxy]phenyl]-1-(4-fluorophenyl)-6-methyl-2-oxopyridine-3-carboxamide]	< 100	100 to 300
Cc1nc(C)c(-c2ccc(F)cc2)c(O)c1C(=O)Nc1ccc(Oc2ccnc3cc(OCc4ccccc4)cnc23)c(F)c1 [Compound 277, 5-(4-Fluorophenyl)-N-[3-fluoro-4-[(7-phenylmethoxy-1,5-naphthyridin-4-yl)oxy]phenyl]-4-hydroxy-2,6-dimethylpyridine-3-carboxamide]	< 100	100 to 300
COc1cc2nccc(Oc3ccc(NC(=O)c4cn(C)cc(-c5c(C)cc(F)cc5C)c4=O)cc3F)c2nc1OC [Compound 268, N-[4-[(6,7-Dimethoxy-1,5-naphthyridin-4-yl)oxy]-3-fluorophenyl]-5-(4-fluoro-2,6-dimethylphenyl)-1-methyl-4-oxopyridine-3-carboxamide]	< 100	> 300
Cc1ncc(C(=O)Nc2ccc(Oc3ccnc4ccc(OCCN5CCOCC5)nc34)c(F)c2)c(O)c1-c1ccc(F)cc1 [Compound 352, N-[3-fluoro-4-[[6-(2-morpholin-4-ylethoxy)-1,5-naphthyridin-4 yl]oxy]phenyl]-5-(4-fluorophenyl)-4-hydroxy-6-methylpyridine-3-carboxamide]	< 100	100 to 300
COc1cc2nccc(Oc3ccc(NC(=O)c4c(C)cc(C)n(-c5ccc(F)cc5)c4=O)cc3F)c2nc1OC [Compound 279, N-[4-[(6,7-Dimethoxy-1,5-naphthyridin-4-yl)oxy]-3-fluorophenyl]-1-(4-fluorophenyl)-4,6-dimethyl-2-oxopyridine-3-carboxamide]	< 100	< 100
COc1cc2nccc(Oc3ccc(NC(=O)c4ccnn(-c5ccc(F)cc5)c4=O)cc3F)c2nc1OC [Compound 386, N-[4-[(6,7-dimethoxy-1,5-naphthyridin-4-yl)oxy]-3-fluorophenyl]-2-(4-fluorophenyl)-3-oxopyridazine-4-carboxamide]	< 100	< 100
COc1cc2nccc(Oc3ccc(NC(=O)c4cn(C)c(C)c(-c5ccc(F)cc5)c4=O)c(F)c3F)c2nc1OC [Compound 390, N-[4-[(6,7-dimethoxy-1,5-naphthyridin-4-yl)oxy]-2,3-difluorophenyl]-5-(4-fluorophenyl)-1,6-dimethyl-4-oxopyridine-3-carboxamide]	< 100	> 300
COCc1c(-c2ccc(F)cc2)c(=O)c(C(=O)Nc2ccc(Oc3ccnc4cc(OC)cnc34)c(F)c2)cn1C [Compound 270, N-[3-Fluoro-4-[(7-methoxy-1,5-naphthyridin-4-yl)oxy]phenyl]-5-(4-fluorophenyl)-6-(methoxymethyl)-1-methyl-4-oxopyridine-3-carboxamide]	< 100	> 300
COc1cc2nccc(Oc3ccc(NC(=O)c4cn(C)cc(-c5ccccc5)c4=O)cc3)c2nc1OC [Compound 39, N-[4-[(6,7-Dimethoxy-1,5-naphthyridin-4-yl)oxy]phenyl]-1-methyl-4-oxo-5-phenylpyridine-3-carboxamide hydrochloride]	< 100	< 100
COc1ccc2nccc(Oc3ccc(NC(=O)c4nccn(-c5ccc(F)cc5)c4=O)cc3)c2n1 [Compound 383, 4-(4-fluorophenyl)-N-[4-[(6-methoxy-1,5-naphthyridin-4-yl)oxy]phenyl]-3-oxopyrazine-2-carboxamide]	< 100	> 300
Cc1cc(C)n(-c2ccc(F)cc2)c(=O)c1C(=O)Nc1ccc(Oc2ccnc3cccnc23)c(F)c1 [Compound 295, N-[3-Fluoro-4-(1,5-naphthyridin-4-yloxy)phenyl]-1-(4-fluorophenyl)-4,6-dimethyl-2-oxopyridine-3-carboxamide]	< 100	< 100
COc1cc2nccc(Oc3ccc(NC(=O)c4cn(C)c(C)c(-c5ccc(F)cc5)c4=O)c(F)c3)c2nc1OC [Compound 389, N-[4-[(6,7-dimethoxy-1,5-naphthyridin-4-yl)oxy]-2-fluorophenyl]-5-(4-fluorophenyl)-1,6-dimethyl-4-oxopyridine-3-carboxamide]	< 100	> 300
COc1ccc2nccc(Oc3ccc(NC(=O)c4cnc(C)c(-c5ccc(F)cc5)c4O)cc3)c2n1 [Compound 342, 5-(4-fluorophenyl)-4-hydroxy-N-[4-[(6-methoxy-1,5-naphthyridin-4-yl)oxy]phenyl]-6-methylpyridine-3-carboxamide]	< 100	100 to 300
